Laboratory results published in patent US20110152166A1, “METHOD OF MODULATION OF PROTEIN PHOSPHORYLATION-DEPENDENT CONFORMATIONAL TRANSITIONS WITH LOW MOLECULAR WEIGHT COMPOUNDS” (priority 2006, published 2011).
Changes are numbered by the printed parent chain. Ends that are not written are not given here.

Key:
Assay in all cases: PDK1 activity assay with T308tide
Format in all cases: biochemical
GST-PDK1 [Arg131Lys] = target: T1, GST-PDK1 [Arg131Lys] (Homo sapiens, UniProt O15530, R131K)
T1 construct: different protein constructs, comprising the full length protein or the catalytic domain alone; made in house; host or cells: HEK293 cells (pEBG-2T-PDK1 mutant)
T1 sequence (O15530 1-556 R131K): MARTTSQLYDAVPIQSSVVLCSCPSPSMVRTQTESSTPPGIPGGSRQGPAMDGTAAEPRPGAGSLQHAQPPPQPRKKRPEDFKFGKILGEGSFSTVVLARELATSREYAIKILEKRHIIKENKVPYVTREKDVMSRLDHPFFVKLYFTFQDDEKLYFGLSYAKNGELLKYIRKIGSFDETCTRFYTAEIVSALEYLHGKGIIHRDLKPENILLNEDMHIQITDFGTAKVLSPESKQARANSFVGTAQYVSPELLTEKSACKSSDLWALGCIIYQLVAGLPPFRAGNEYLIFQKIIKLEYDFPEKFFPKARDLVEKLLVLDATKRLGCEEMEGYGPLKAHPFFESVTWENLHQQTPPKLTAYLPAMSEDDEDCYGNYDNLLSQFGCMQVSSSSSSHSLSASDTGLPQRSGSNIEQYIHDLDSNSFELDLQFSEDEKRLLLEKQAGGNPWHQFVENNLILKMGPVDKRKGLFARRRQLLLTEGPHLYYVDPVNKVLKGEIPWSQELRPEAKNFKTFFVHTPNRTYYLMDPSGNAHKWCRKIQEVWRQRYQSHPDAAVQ

GST-PDK1 [Leu155Glu] = target: T2, GST-PDK1 [Leu155Glu] (Homo sapiens, UniProt O15530, L155E); conditions: for AC50: GST-PDK1 [Leu155Glu]
T2 construct: different protein constructs, comprising the full length protein or the catalytic domain alone; made in house; host or cells: HEK293 cells (pEBG-2T-PDK1 mutant)
T2 sequence (O15530 1-556 L155E): T1 sequence (O15530 1-556 R131K) with K131R, L155E

GST-PDK1 [Leu155Ala] = target: T3, GST-PDK1 [Leu155Ala] (Homo sapiens, UniProt O15530, L155A)
T3 construct: different protein constructs, comprising the full length protein or the catalytic domain alone; made in house; host or cells: HEK293 cells (pEBG-2T-PDK1 mutant)
T3 sequence (O15530 1-556 L155A): T1 sequence (O15530 1-556 R131K) with K131R, L155A

AC50 (GST-PDK1 [Arg131Lys]) | Max. activity (GST-PDK1 [Arg131Lys]) | AC50 (GST-PDK1 [Leu155Glu]) | activation of PDK1 mutant (in words) (GST-PDK1 [Leu155Glu]; Leu155 replaced with Glu, constitutively active) | AC50 (GST-PDK1 [Leu155Ala]) | Max. activity (GST-PDK1 [Leu155Ala]) | Compound
51 ± 15 µM | 1.13 ± 0.09 U/mg | No Effect | could not be further activated | > 200 µM | 2.02 ± 0.61 U/mg | O=C(O)CSC(CC(=O)c1ccc(Cl)cc1)c1ccccc1 (centres unmarked) [Compound 1]
0.13 ± 0.02 µM | 0.77 ± 0.02 U/mg | No Effect |  | 3.7 ± 0.66 µM | 3.46 ± 0.15 U/mg | REPRILSEEEQEMFRDFDYIADWC [PIFtide, reference compound]
